Common to all, as to format: cell-based
Experiment [1] has as its system ID4 promoter region in DLD1. Nature of the experiment: Bisulfite sequencing of ID4 promoter region after 5Aza treatment, DLD1. The following applies: DLD1, 10 ug/mL of 5Aza for 72 hours. On the procedure:
(§1) Cell Lines. Three CRC cell lines SW480, DLD1, and LOVO (American Type Culture Collection, Manassas, Va.) were analyzed in this study. Genomic DNA was extracted from cells as described previously (33). Total RNA was extracted with TRI Reagent (Molecular Research Center, Inc., Cincinnati, Ohio) according to the manufacturer's protocol. For ID4 expression restoration study, SW480 and DLD1 were treated with DNA demethylation agent 5-aza-cytidine (5Aza), a known inhibitor of methylation, as described previously (33-35). Cells were seeded at 7×10^5/T-25 flask on day zero; the culture medium was changed on day two, and cells were then treated with 5Aza at final concentrations of 5 ug/mL for 48 hours (SW480 and DLD1) and 10 ug/mL for 72 hours (DLD1). After treatment, cells were harvested for DNA and RNA as described above.
(§2) Sodium bisulfite modification was applied on extracted genomic DNA of tissue specimens or cell lines for methylation-specific PCR or bisulfite sequencing as described previously (33).
(§3) For bisulfite sequencing, the primer set was as follows: forward, 5′-[…]-3′; and reverse, 5′-[…]-3′, with Y═C or T, R=G or A, as described previously (32). […] Sequences were read by CEQ 8000XL capillary array electrophoresis system (Beckman Coulter) with CEQ 8000 software version 6.0 (Beckman Coulter) as described previously (37).

Experiment [2] deals with ID4 promoter region in DLD1. Nature of the experiment: Methylation-specific PCR of ID4 promoter region after 5Aza treatment, DLD1. The following applies: DLD1, 10 ug/mL of 5Aza for 72 hours; untreated only methylated peaks. On the procedure: (§4) Cell Lines. Three CRC cell lines SW480, DLD1, and LOVO (American Type Culture Collection, Manassas, Va.) were analyzed in this study. Genomic DNA was extracted from cells as described previously (33). Total RNA was extracted with TRI Reagent (Molecular Research Center, Inc., Cincinnati, Ohio) according to the manufacturer's protocol. […] Cells were seeded at 7×10^5/T-25 flask on day zero; the culture medium was changed on day two, and cells were then treated with 5Aza at final concentrations of 5 ug/mL for 48 hours (SW480 and DLD1) and 10 ug/mL for 72 hours (DLD1). After treatment, cells were harvested for DNA and RNA as described above. Sodium bisulfite modification was applied on extracted genomic DNA of tissue specimens or cell lines for methylation-specific PCR or bisulfite sequencing as described previously (33). Detection of Hypermethylation. Methylation status of ID4 promoter region was analyzed by methylation-specific PCR and bisulfite sequencing. […] PCR products were detected and analyzed by CEQ 8000XL capillary array electrophoresis system (Beckman Coulter, Inc., Fullerton, Calif.) with CEQ 8000 software version 6.0 (Beckman Coulter) as described previously (35). Methylation status was determined by the ratio of the signal intensities of methylated and unmethylated PCR products; samples with methylated to unmethylated ratio larger than 0.2 were determined as methylated.

Experiment [3] relates to ID4 mRNA expression in SW480. Nature of the experiment: ID4 mRNA expression by quantitative real-time reverse transcription-PCR after 5Aza treatment, SW480. On the procedure:
as §1
(§5) Analysis of mRNA Expression Level. Reverse-transcriptase reactions were done on 1.0 ug of extracted total RNA with Moloney murine leukemia virus reverse-transcriptase (Promega, Madison, Wis.) with oligodeoxythymidylic acid primers, as described previously (39). Quantitative real-time reverse transcription-PCR assay was done on the iCycler iQ Real-Time thermocycler detection system (Bio-Rad Laboratories, Hercules, Calif.; 39). For each PCR, the reaction mixture consisted of cDNA template synthesized by reverse-transcription from 250 ng of total RNA, 0.2 mmol/L of forward primer (5′-CGCTCACTGCGCTCAACAC-3′), 0.2 mmol/L of reverse primer (5′-TCAGGCGGCCGCACACCT-3′), and 0.6 mmol/L of fluorescence resonance energy transfer probe (5′-FAM-[…]-BHQ-3′). […] Absolute copy numbers were determined by a standard curve with serial dilutions (10^8 to 10^1 copies) of DNA containing ID4 or GAPDH cDNA sequence. […] The expression level of the housekeeping gene GAPDH was measured as an internal reference with a standard curve to determine the integrity of template RNA for all of the specimens. The ratio of ID4 and GAPDH mRNA level was calculated as follows: (absolute copy number of ID4)/(absolute copy number of GAPDH) as described previously (39).

In a further experiment the test system is CRC cell lines. Nature of the experiment: mRNA expression in CRC cell lines after 5Aza treatment (summary statements). On the procedure:
Cell Lines. Three CRC cell lines SW480, DLD1, and LOVO (American Type Culture Collection, Manassas, Va.) were analyzed in this study. Genomic DNA was extracted from cells as described previously (33). Total RNA was extracted with TRI Reagent (Molecular Research Center, Inc., Cincinnati, Ohio) according to the manufacturer's protocol. For ID4 expression restoration study, SW480 and DLD1 were treated with DNA demethylation agent 5-aza-cytidine (5Aza), a known inhibitor of methylation, as described previously (33-35). […]
as §5, with “Reverse-transcriptase reactions were done on 1.0 ug of extracted total RNA with Moloney murine leukemia virus reverse-transcriptase (Promega, Madison, Wis.) with oligodeoxythymidylic acid primers, as described previously (39).” left out, “The ratio of ID4 and GAPDH mRNA level was calculated as follows: (absolute copy number of ID4)/(absolute copy number of GAPDH) as described previously (39).” left out

The subject of experiment [4] is ID4 promoter region in SW480. Put plainly: Methylation-specific PCR of ID4 promoter region after 5Aza treatment, SW480. The following applies: SW480, 5 ug/mL of 5Aza for 48 hours; untreated only methylated peaks. On the procedure: as §4
Experiment [5] concerns ID4 mRNA expression in DLD1. Nature of the experiment: ID4 mRNA expression by quantitative real-time reverse transcription-PCR after 5Aza treatment, DLD1. On the procedure: as §1
Analysis of mRNA Expression Level. Reverse-transcriptase reactions were done on 1.0 ug of extracted total RNA with Moloney murine leukemia virus reverse-transcriptase (Promega, Madison, Wis.) with oligodeoxythymidylic acid primers, as described previously (39). Quantitative real-time reverse transcription-PCR assay was done on the iCycler iQ Real-Time thermocycler detection system (Bio-Rad Laboratories, Hercules, Calif.; 39). For each PCR, the reaction mixture consisted of cDNA template synthesized by reverse-transcription from 250 ng of total RNA, 0.2 mmol/L of forward primer (5′-CGCTCACTGCGCTCAACAC-3′), 0.2 mmol/L of reverse primer (5′-TCAGGCGGCCGCACACCT-3′), and 0.6 mmol/L of fluorescence resonance energy transfer probe (5′-FAM-[…]-BHQ-3′). PCR amplification was done in a 20-ul reaction volume for 45 cycles of 30 seconds at 94° C., 30 seconds at 58° C., and 30 seconds at 72° C. with 3 mmol/L of Mg^2+. Absolute copy numbers were determined by a standard curve with serial dilutions (10^8 to 10^1 copies) of DNA containing ID4 or GAPDH cDNA sequence. Analysis without templates was done as a negative control in each study. PCR products were electrophoresed on 2% agarose gels to confirm correct product size and absence of nonspecific bands. The expression level of the housekeeping gene GAPDH was measured as an internal reference with a standard curve to determine the integrity of template RNA for all of the specimens. The ratio of ID4 and GAPDH mRNA level was calculated as follows: (absolute copy number of ID4)/(absolute copy number of GAPDH) as described previously (39).

Experiment [6] concerns ID4 promoter region in SW480. Put plainly: Bisulfite sequencing of ID4 promoter region after 5Aza treatment, SW480. The settings on record: SW480, 5 ug/mL of 5Aza for 48 hours; nontreated cells all CpG sites methylated. On the procedure:
as §1, §2, §3

The structures appear in SMILES notation. “Also recorded” adds a separate entry of the source.

With `Nc1ncn([C@@H]2O[C@H](CO)[C@@H](O)[C@H]2O)c(=O)n1` [5Aza, 5-aza-cytidine], the “Methylation status of CpG sites by bisulfite sequencing” value in experiment [1] was “CpG sites partially lost their methylation”; in experiment [6], “most CpG sites were changed to unmethylated form”. The “Methylation-specific PCR result of ID4 promoter” value is recorded as “Unmethylated peaks appeared; also recorded: produced an unmethylation-specific peak” in experiment [2] and “Unmethylated peaks appeared; also recorded: showed an unmethylation-specific peak” in experiment [4]. Further, the ID4 copy number is given as 4.7×10^2 copies/250 ng of total RNA in experiment [3] (SW480, 5 ug/mL of 5Aza for 48 hours, untreated undetectable (0)) and 4.8×10^2 copies/250 ng of total RNA in experiment [5] (DLD1, 10 ug/mL of 5Aza for 72 hours, untreated undetectable (0)). The “ID4 expression ratio (ID4 copy number)/(GAPDH copy number)” value is given as 2.8 × 10^−3 in experiment [3] (SW480, 5Aza-treated, untreated 0) and 4.8 × 10^−3 in experiment [5] (DLD1, 5Aza-treated, untreated 0). Further, the GAPDH copy number was 1.7 × 10^5 copies/250 ng of total RNA in experiment [3] (SW480, 5Aza-treated, untreated 4.6 × 10^6) and 9.9 × 10^4 copies/250 ng of total RNA in experiment [5] (DLD1, 5Aza-treated, untreated 5.6 × 10^5). The “ID4 mRNA expression in hypermethylated CRC cell lines” value in the experiment on CRC cell lines (5-aza-cytidine treatment) was “could be restored”. The “GAPDH mRNA” value in the experiment with CRC cell lines (after 5Aza treatment, CRC cell lines) is listed as “decreased”. In addition, the ID4 expression restoration entry in experiment [5] (DLD1, 5 ug/mL of 5Aza for 48 hours) is reported as “did not overtly restore ID4 expression”.

The record behind these values is US7588894B2, “Use of ID4 for diagnosis and treatment of cancer” (John Wayne Cancern Institute, priority 2005, dated 2009).
